Measurements from article PMC9458059, “Design, Synthesis and Biological Evaluation of New Carbohydrate-Based Coumarin Derivatives as Selective Carbonic Anhydrase IX Inhibitors via “Click” Reaction” (Molecules, 2022).
Where two headings read alike, the source gives them in different places.

What was measured:
[1] = molecular target: T1, hCA I (Homo sapiens, UniProt P00915); experiment: CA inhibition by the esterase assay, hCA I; format: biochemical; conditions: human recombinant enzyme, 4-nitrophenylacetate as substrate
T1 construct: purchased
T1 sequence (P00915 whole entry): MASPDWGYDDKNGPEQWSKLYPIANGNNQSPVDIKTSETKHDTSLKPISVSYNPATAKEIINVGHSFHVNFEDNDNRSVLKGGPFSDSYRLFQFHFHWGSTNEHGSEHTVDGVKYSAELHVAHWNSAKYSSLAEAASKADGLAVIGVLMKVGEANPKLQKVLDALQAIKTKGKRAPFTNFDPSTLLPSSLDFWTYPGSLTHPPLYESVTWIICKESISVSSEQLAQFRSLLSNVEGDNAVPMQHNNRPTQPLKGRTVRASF
Method: (§1) The esterase assay was used for testing the inhibitory activities of target compounds against carbonic anhydrases. […] Next, the stock solution of inhibitor was diluted to the specified concentration by using analysis buffer. […] In addition, the purchased CA was diluted with analysis buffer and added to 96-well plates. Next, different concentrations of inhibitors were also added to 96-well plates. To form the inhibitors and enzymes complex, E-I solutions were preincubated together for 4 h before the test at room temperature. Meanwhile, the nonenzymatic hydrolysis rates were tested by the blank control experiments. The absorbances were determined by using multifunctional enzyme marking instrument.

[2] = molecular target: hCA II (Homo sapiens, UniProt P00918); experiment: CA inhibition by the esterase assay, hCA II; format: biochemical; conditions: human recombinant enzyme, 4-nitrophenylacetate as substrate
Method: as §1

[3] = molecular target: T2, hCA IX (Homo sapiens, UniProt Q16790); experiment: CA inhibition by the esterase assay, hCA IX; format: biochemical; conditions: for IC50: human recombinant enzyme, esterase assay, 4-nitrophenylacetate as substrate; for Selectivity Ratio hCA I/hCA IX / Selectivity Ratio hCA II/hCA IX: ratio of IC50 values
T2 construct: purchased
Method: as §1

[4] = test system: HT-29 cells; experiment: Cell viability MTT assay, HT-29; format: cell-based; conditions: Homo sapiens
Method: (§2) In the present study, the potential cytotoxicity of compounds 10a–10p was evaluated in vitro by MTT assay. […] So, half of each cell line were subjected to hypoxic conditions (0.5% O2, 5% CO2 and 94.5% N2) for inducing the expression of CA IX and the other half were incubated under normal conditions (normoxia). Subsequently, all synthesized derivatives were screened at a concentration of 100 μM to test their cytotoxicity in mentioned above cells.
(§3) The two human cancer cell lines were cultivated for 24 h at 37 °C in a 96-well plate. Subsequently, different concentrations of inhibitors were added to 96-well plate and then was incubated for 96 hours. After the MTT solution was added to per well, cancer cells were further incubated for 4 h at 37 °C. Finally, formazan crystals were dissolved by using DMSO. The cancer cells were from American Type Culture Collection.

[5] = test system: MDA-MB-231 cells; experiment: Cell viability MTT assay, MDA-MB-231; format: cell-based; conditions: Homo sapiens
Method: as §2, §3

[6] = test system: MCF-10A cell line; experiment: Cytotoxicity against normal cell line MCF-10A (MTT assay); format: cell-based; conditions: Homo sapiens
[7] = molecular target: T3, hERG channel (Homo sapiens, UniProt Q12809); experiment: Inhibition evaluation on hERG K+ channel (whole-cell recording, HEK 293); format: cell-based; conditions: HEK 293 cells stably transfected with hERG
T3 construct: expressed in transfected cells; host or cells: HEK 293
T3 sequence (Q12809 whole entry): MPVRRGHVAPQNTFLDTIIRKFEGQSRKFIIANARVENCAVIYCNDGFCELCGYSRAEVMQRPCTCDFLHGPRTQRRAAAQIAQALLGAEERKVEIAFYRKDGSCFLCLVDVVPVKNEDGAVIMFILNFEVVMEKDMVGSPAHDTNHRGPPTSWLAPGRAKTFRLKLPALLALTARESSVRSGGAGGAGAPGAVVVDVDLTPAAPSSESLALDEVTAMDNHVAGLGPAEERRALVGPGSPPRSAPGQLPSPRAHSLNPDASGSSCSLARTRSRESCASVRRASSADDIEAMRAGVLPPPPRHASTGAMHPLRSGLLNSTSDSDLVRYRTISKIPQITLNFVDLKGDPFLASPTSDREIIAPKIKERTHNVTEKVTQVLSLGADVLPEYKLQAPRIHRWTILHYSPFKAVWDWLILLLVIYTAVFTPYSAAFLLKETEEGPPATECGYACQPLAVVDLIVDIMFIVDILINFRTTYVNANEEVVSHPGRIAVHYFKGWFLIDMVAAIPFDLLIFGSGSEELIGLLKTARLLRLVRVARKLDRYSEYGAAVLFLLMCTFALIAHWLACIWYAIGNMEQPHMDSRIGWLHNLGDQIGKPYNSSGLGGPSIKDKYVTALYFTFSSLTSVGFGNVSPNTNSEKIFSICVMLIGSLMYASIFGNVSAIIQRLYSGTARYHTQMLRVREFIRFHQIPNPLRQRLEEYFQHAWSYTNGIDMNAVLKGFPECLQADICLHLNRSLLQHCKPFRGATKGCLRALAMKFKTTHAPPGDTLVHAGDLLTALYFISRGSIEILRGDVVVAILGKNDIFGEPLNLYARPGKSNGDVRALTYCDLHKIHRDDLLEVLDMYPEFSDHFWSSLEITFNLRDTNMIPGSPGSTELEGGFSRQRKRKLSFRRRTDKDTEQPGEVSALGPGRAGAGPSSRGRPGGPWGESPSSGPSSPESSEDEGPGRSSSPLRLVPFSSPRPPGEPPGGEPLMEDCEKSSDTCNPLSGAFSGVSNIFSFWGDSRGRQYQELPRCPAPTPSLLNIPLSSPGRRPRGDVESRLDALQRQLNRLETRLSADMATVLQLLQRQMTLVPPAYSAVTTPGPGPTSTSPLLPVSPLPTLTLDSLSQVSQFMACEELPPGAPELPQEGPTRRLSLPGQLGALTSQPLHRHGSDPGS
Method: HEK 293 cells were stably transfected with human Ether-a-gogo related gene (hERG) channel. The voltage-gated hERG potassium channel current was recorded at room temperature from randomly selected transfected cells using whole-cell recording technique with an EPC10 USB (HEKA) or Multiclamp 700 B amplifier (Molecular Devices) while electrical data was digitalized by Digidata1440 A with acquisition rate of 10 kHz and signals filtered at 2.5 KHz using Patchmaster or pClamp 10, respectively. Dofetilide was included as a positive control to ensure the accuracy and sensitivity of the test system. All experiments were performed in 3 times.

[8] = Acute toxicity assay in mice; conditions: mouse, in vivo, oral, mice, expected from preliminary data
Method: (§4) Finally, acute toxicity of representative compounds was conducted in mice to preliminarily evaluate the risk of target compounds to mammals. […].
(§5) […]. After the compound was administered, the latency of death was observed and recorded over a span of 14 days. The experimental protocols were evaluated and approved by the ethics committee of the Shenyang Pharmaceutical University.

[9] = test system: mice; experiment: Acute toxicity assay in mice; conditions: mouse, in vivo, 14 days
Method: as §4, §5

[10] = Metabolic stability in mouse liver microsomes; conditions: for CLint scaled at 1 μM / half-life at 1 μM: mouse, liver microsomes
[11] = test system: HT-29 cancer cells; experiment: Extracellular pH measurement, HT-29; format: cell-based, human; conditions: HT-29, 0.1 and 0.5 mM, 48 h, normoxia and hypoxia
Method: (§6) One important feature of CA IX is regulating the pH of tumor cells. The expression of CA IX in solid tumors will make the extracellular pH become more acidic to promote tumor growth and metastasis. Therefore, the effect on extracellular pH of the representative compounds 10a and 10h was tested in hypoxia and normoxic conditions. […] Especially, the extracellular acidification of these two cancer cells could be slightly reversed by this compound under normoxic condition. In addition, the reversal of extracellular acidification is more significant under hypoxia condition. Furthermore, a dose-dependent effect was observed.
(§7) Figure 3 Extracellular pH measurement after 48 h of HT-29 and MDA-MB-231 cancer cells in normoxia and hypoxia upon treatment with compound 10a and 10h (0.1 and 0.5 mM).

[12] = test system: MDA-MB-231 cancer cells; experiment: Extracellular pH measurement, MDA-MB-231; format: cell-based, human; conditions: MDA-MB-231, 0.1 and 0.5 mM, 48 h, normoxia and hypoxia
Method: as §6, §7

[13] = Plasma stability assay; format: in vitro ADME; conditions: male, SD, pH 7.4, rat plasma, 37 °C
Method: In fact, most drugs reach their targets to show their pharmacological activity via the circulation system, therefore, the plasma stability of the target compound is a crucial consideration for the evaluation of its druggability. Therefore, the in vitro plasma stability assay of the representative compound was also performed in this study.
Rat plasma was collected from adult male SD rats. The in vitro stability of 10a was determined in rat plasma and in PBS at 37 °C, at the meantime, samples were taken at time points 0, 10, 30, 60, and 120, and tested by HPLC. The rest of the time was incubated in a constant temperature shaker to compare different time points. Compare the peak areas of 10a in PBS or in rat plasma (pH = 7.4, 37 °C) before and after constant temperature incubation at different time points. The compounds in rat plasma were extracted with methanol, centrifuged, and repeated three times, and then detected with a preparative liquid phase at 254 wavelength.

[14] = in vitro; conditions: mouse, microsomes
[15] = hypoxia (0.5% O2, 5% CO2 and 94.5% N2), read-out: Cell Viability (%) HT-29 Hypoxia
[16] = normoxia, read-out: Cell Viability (%) HT-29 Normoxia
[17] = hypoxia (0.5% O2, 5% CO2 and 94.5% N2), read-out: Cell Viability (%) MDA-MB-231 Hypoxia
[18] = normoxia, read-out: Cell Viability (%) MDA-MB-231 Normoxia

Row | Compound | IC50 [1] [µM] | IC50 [2] [µM] | IC50 [3] [µM] | Selectivity Ratio hCA I/hCA IX [3] | Selectivity Ratio hCA II/hCA IX [3] | viability at 100 µM [4, 15] [%] | viability at 100 µM [4, 16] [%] | viability at 100 µM [5, 17] [%] | viability at 100 µM [5, 18] [%] | IC50 [6] [µM] | IC50 [7] [µM] | LD50 at 14 days [8] [mg/kg] | Survival Quantity/Total Quantity ([9]; 500 mg/kg) | Survival Quantity/Total Quantity ([9]; 1000 mg/kg) | Survival Quantity/Total Quantity ([9]; 1500 mg/kg) | CLint scaled at 1 μM [10] [mL/min/kg] | half-life at 1 μM [10] [h] | also measured
1 | O=c1ccc2ccc(OCc3cn([C@@H]4O[C@H](CO)[C@@H](O)[C@H](O)[C@@H]4O)nn3)cc2o1 [Compound 10c, 7-[(1-β-. D-mannopyranosyl-1H-1,2,3-triazol-4-yl)methoxy]-2H-chromen-2-one] | 17.5 | 24 | 0.015 | 1167 | 1600 | 40.2 | 42.6 | 38.3 | 55.2 | > 100 | > 50 | > 1500 | 5/5 | 5/5 | 5/5 | 4.07 | 22.4 | 
2 | O=c1ccc2ccc(OCc3cn([C@@H]4O[C@H](CO)[C@@H](O)[C@H](O)[C@H]4O)nn3)cc2o1 [Compound 10a, 7-[(1-β-. D-glucopyranosyl-1H-1,2,3-triazol-4-yl)methoxy]-2H-chromen-2-one] | 33.2 | 21.5 | 0.011 | 3018 | 1955 | 32.5 | 40.2 | 32.9 | 51.3 | > 100 | > 50 | > 1500 | 5/5 | 5/5 | 5/5 | 4.76 | 19.2 | Effect on extracellular acidification (extracellular pH) [11]: important impact on the extracellular acidification; Effect on extracellular acidification (extracellular pH) [12]: important impact on the extracellular acidification; remaining at 0 h ([13]; time point 0 min): 100%; remaining at 10 min ([13]; time point 10 min): 115%; remaining at 0.5 h ([13]; time point 30 min): 93%; remaining at 1 h ([13]; time point 60 min): 86%; remaining at 2 h ([13]; time point 120 min): 102%; half-life ([13]; read-out: T1/2 plasma stability): > 20.5 h
3 | O=C(O)Cc1ccccc1Nc1c(Cl)cccc1Cl [Diclofenac, reference compound] |  |  |  |  |  |  |  |  |  |  |  |  |  |  |  |  |  | half-life at 1 μM [14]: 0.667 h; CL ([10]; mouse liver microsomes, 1 μΜ test compound): 137.4 mL/min/kg
